Assay results: ChEMBL document CHEMBL1155726, “Seven new sesquiterpene glycosides from the root bark of Dictamnus dasycarpus” (J Nat Prod, 2001)
Activity calls are given as the source filed them. The rule behind the calls is not given here.

System: Splenocyte
Test: Immunomodulatory activity in mouse splenocyte assessed as stimulation of proliferation at 10 umole/L after 44 hrs by MTT assay in presence of ConA
Assay type: functional, cell-based

CC(C)(O)[C@@H]1CC[C@]23CO[C@](C)(CC[C@@H]2O)[C@H]3[C@@H]1O[C@@H]1O[C@H](CO)[C@@H](O)[C@H](O)[C@H]1O
Activity: Active
